Data published in US11643419B2, “Compositions and methods for the treatment of xerostomia” (Cellix Bio Private Limited, priority 2016, dated 2023).
In brackets after ≈: the same amount, converted by molar mass. Read-outs that look alike come from different tables or passages of the source.

How the values were obtained:
[1] = test system: oral pathogenic microorganisms; details: cited from earlier work; for antimicrobial activity (in words): among long-chain fatty acids / against various oral microorganisms
C. albicans = details: cited from earlier work
Candida Species [2] = test: MIC against Candida Species; format: cell-based; details: printed conversion of 0.45 μmoles/ml
Candida Species [3] = details: cited from earlier work

CCCCCCCCCCCCCCCC(=O)O [palmitic acid]
antimicrobial activity (in words) [1]: greatest antimicrobial activity

CCCCC/C=C\C/C=C\C/C=C\CCCCC(=O)O [GLA, gamma linoleic acid]
antimicrobial activity (in words) [1]: antimicrobial activities
antimicrobial activity (in words) ([1]; listed as 7-linoleic acid): greatest antimicrobial activity
antimicrobial activity (in words) ([1]; listed as gamma linoleic acid): significant anti-microbial activity
bactericidal at a concentration of ([1]; n-6 fatty acids GLA): 25 µg/mL

CCCCC/C=C\C/C=C\CCCCCCCC(=O)O [Linoleic acid]
antimicrobial activity (in words) [1]: greatest antimicrobial activity
bactericidal at a concentration of ([1]; linoleic acid): 25 µg/mL
activity against C. albicans (C. albicans): < 40%
MIC (Candida Species [2]): 0.13 mg/L (≈ 0.464 µM)
MIC (Candida Species [3]): 450 µM (≈ 126 µg/mL)

CCCCCC/C=C\CCCCCCCC(=O)O [palmitoleic acid]
antimicrobial activity (in words) [1]: greatest antimicrobial activity

CCCCC/C=C\C/C=C\C/C=C\C/C=C\CCCC(=O)O [arachidonic acid]
antimicrobial activity (in words) [1]: greatest antimicrobial activity
